US9278981B2, “Compounds and compositions for inhibiting the activity of ABL1, ABL2 and BCR-ABL1” (Novartis AG, priority 2012, dated 2016)

Tests used:
ABL1 (64-515) [1] = biological target: T1, ABL1 (64-515) (Homo sapiens (Human), UniProt P00519); assay: Radio ABL1 (64-515) assay (radiometric filter-binding); assay type: biochemical
ABL1 (64-515) [2] = biological target: T1, ABL1 (64-515); assay: Caliper ABL1 (64-515) assay (microfluidic mobility shift); assay type: biochemical

T1 sequence (P00519 64-515): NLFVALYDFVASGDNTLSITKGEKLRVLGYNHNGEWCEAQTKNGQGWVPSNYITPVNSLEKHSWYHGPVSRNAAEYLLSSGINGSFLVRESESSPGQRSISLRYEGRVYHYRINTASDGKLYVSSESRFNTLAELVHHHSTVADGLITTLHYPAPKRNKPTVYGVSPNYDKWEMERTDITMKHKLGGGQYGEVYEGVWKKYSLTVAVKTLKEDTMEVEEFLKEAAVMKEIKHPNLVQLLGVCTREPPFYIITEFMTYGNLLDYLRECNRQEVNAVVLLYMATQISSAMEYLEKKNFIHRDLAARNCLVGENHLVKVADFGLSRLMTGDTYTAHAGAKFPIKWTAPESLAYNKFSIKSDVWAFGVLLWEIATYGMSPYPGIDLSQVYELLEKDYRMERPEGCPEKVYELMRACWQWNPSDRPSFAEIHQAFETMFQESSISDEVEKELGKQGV

Row | IC50 (ABL1 (64-515) [1]) [nM] | IC50 (ABL1 (64-515) [2]) [nM] | SMILES
1 | 5 | 1.7 | CCN(CCO)c1ncc(C(=O)Nc2ccc(OC(F)(F)F)cc2)cc1-c1cncnc1 [Example 156, 6-(Ethyl(2-hydroxyethyl)amino)-5-(pyrimidin-5-yl)-N-(4-(trifluoromethoxy)phenyl)nicotinamide]
2 | 1 | 0.6 | O=C(Nc1ccc(OC(F)(F)Cl)cc1)c1ccc(N2C[C@H](O)[C@@H](O)C2)c(-c2cncnc2)c1 [Example 244, N-(4-(Chlorodifluoromethoxy)phenyl)-4-((3S,4S)-3,4-dihydroxypyrrolidin-1-yl)-3-(pyrimidin-5-yl)benzamide]
3 | 4 | 1.1 | O=C(Nc1ccc(OC(F)(F)Cl)cc1)c1cnc(N2CC[C@@H](O)C2)c(-c2cc(F)cnc2F)c1 [Example 272]
4 | 4 | 6 | CC(C)(O)c1cc(F)cc(-c2cc(C(=O)Nc3ccc(OC(F)(F)F)cc3)cnc2N2CC[C@@H](O)C2)c1 [Example 60, (R)-5-(3-Fluoro-5-(2-hydroxypropan-2-yl)phenyl)-6-(3-hydroxypyrrolidin-1-yl)-N-(4-(trifluoromethoxy)phenyl)nicotinamide]
5 | 6 | 0.7 | O=C(Nc1ccc(OC(F)(F)F)cc1)c1cnc(N2C[C@H](CO)[C@@H](O)C2)c(-c2cncc(F)c2)c1 (relative stereo) [Example 92, 5′-Fluoro-2-(trans-3-hydroxy-4-(hydroxymethyl)pyrrolidin-1-yl)-N-(4-(trifluoromethoxy)phenyl)-[3,3′-bipyridine]-5-carboxamide]
6 | 5.1 | 0.7 | CCN(CCO)c1ncc(C(=O)Nc2ccc(SC(F)(F)F)cc2)cc1-c1cncc(F)c1 [Example 196, 2-(Ethyl(2-hydroxyethyl)amino)-5′-fluoro-N-(4-((trifluoromethyl)thio)phenyl)-[3,3′-bipyridine]-5-carboxamide]
7 | 4 | 0.6 | O=C(Nc1ccc(OC(F)(F)F)cc1)c1cnc(N2CC[C@@H](O)C2)c(-c2cccc(F)c2)c1 [Example 58, (R)-5-(3-Fluorophenyl)-6-(3-hydroxypyrrolidin-1-yl)-N-(4-(trifluoromethoxy)phenyl)nicotinamide]
8 | < 3 | 2 | O=C(Nc1ccc(OC(F)(F)F)cc1)c1cnc(N2CC(CO)C2)c(-c2cncnc2)c1 [Example 135, 6-(3-(Hydroxymethyl)azetidin-1-yl)-5-(pyrimidin-5-yl)-N-(4-(trifluoromethoxy)phenyl)nicotinamide]
9 | < 3 | 2.9 | O=C(Nc1ccc(OC(F)(F)F)cc1)c1cnc(N2CC[C@@H](O)C2)c(-c2ccc(C(F)(F)F)nc2)c1 [Example 51, (R)-2-(3-Hydroxypyrrolidin-1-yl)-N-(4-(trifluoromethoxy)phenyl)-6′-(trifluoromethyl)-[3,3′-bipyridine]-5-carboxamide]
10 | 13 | 0.4 | CC(=O)NC[C@H]1CCN(c2ncc(C(=O)Nc3ccc(OC(F)(F)Cl)cc3)cc2-c2cncnc2)C1 [Example 178, (R)-6-(3-(Acetamidomethyl)pyrrolidin-1-yl)-N-(4-(chlorodifluoromethoxy)phenyl)-5-(pyrimidin-5-yl)nicotinamide]
11 | 2 | 0.4 | O=C(Nc1ccc(SC(F)(F)Cl)cc1)c1cnc(N2CC[C@@H](O)C2)c(-c2cncnc2)c1 [Example 217, (R)—N-(4-((Chlorodifluoromethyl)thio)phenyl)-6-(3-hydroxypyrrolidin-1-yl)-5-(pyrimidin-5-yl)nicotinamide]
12 | 1.8 | 3.9 | O=C(Nc1ccc(OC(F)(F)Cl)cc1)c1cnc(N(CCO)CCO)c(-c2cncnc2)c1 [Example 261]
13 | 5 | 1 | N[C@H]1CN(c2ccc(C(=O)Nc3ccc(OC(F)(F)Cl)cc3)cc2-c2cncnc2)C[C@@H]1O [Example 245, 4-((3S,4S)-3-Amino-4-hydroxypyrrolidin-1-yl)-N-(4-(chlorodifluoromethoxy)phenyl)-3-(pyrimidin-5-yl)benzamide]
14 | 6 | 0.5 | O=C(Nc1ccc(SC(F)(F)F)c(F)c1)c1cnc(N2CC[C@@H](O)C2)c(-c2cncc(F)c2)c1 [Example 206, (R)-5′-Fluoro-N-(3-fluoro-4-((trifluoromethyl)thio)phenyl)-2-(3-hydroxypyrrolidin-1-yl)-[3,3′-bipyridine]-5-carboxamide]
15 | 0.2 | 10 | N[C@]1(C(F)(F)F)CCN(c2ncc(C(=O)Nc3ccc(OC(F)(F)F)cc3)cc2-c2cncnc2)C1 [Example 223, (R)-6-(3-Amino-3-(trifluoromethyl)pyrrolidin-1-yl)-5-(pyrimidin-5-yl)-N-(4-(trifluoromethoxy)phenyl)nicotinamide]
16 | 2.3 | 0.4 | CN(CCO)c1ncc(C(=O)Nc2ccc(SC(F)(F)F)cc2)cc1-c1cncc(F)c1 [Example 193, 5′-Fluoro-2-((2-hydroxyethyl)(methyl)amino)-N-(4-((trifluoromethyl)thio)phenyl)-[3,3′-bipyridine]-5-carboxamide]
17 | 1 | 2.2 | Cc1ncc(-c2cc(C(=O)Nc3ccc(OC(F)(F)Cl)cc3)ccc2N2C[C@H](O)[C@@H](O)C2)cn1 [Example 246, N-(4-(Chlorodifluoromethoxy)phenyl)-4-((3S,4S)-3,4-dihydroxypyrrolidin-1-yl)-3-(2-methylpyrimidin-5-yl)benzamide]
18 | 2 | 0.6 | Cc1ncccc1-c1cc(C(=O)Nc2ccc(OC(F)(F)Cl)cc2)cnc1N1CC[C@@H](O)C1 [Example 270]
19 | 3 | < 0.13 | O=C(Nc1ccc(OC(F)(F)Cl)cc1)c1cnc(N2C[C@H](O)[C@@H](O)C2)c(-c2cncc(F)c2)c1 [Example 265]
20 | 3 | 1.2 | CC1(O)CN(c2ncc(C(=O)Nc3ccc(OC(F)(F)F)cc3)cc2-c2cccnc2)C1 [Example 130, 2-(3-Hydroxy-3-methylazetidin-1-yl)-N-(4-(trifluoromethoxy)phenyl)-[3,3′-bipyridine]-5-carboxamide]
21 | 4 | 1.1 | Cc1ccc(-c2cc(C(=O)Nc3ccc(OC(F)(F)F)cc3)cnc2N2CC(O)C2)cn1 [Example 127, 2-(3-Hydroxyazetidin-1-yl)-6′-methyl-N-(4-(trifluoromethoxy)phenyl)-[3,3′-bipyridine]-5-carboxamide]
22 | < 3 | 1.1 | O=C(Nc1ccc(OC(F)(F)F)cc1)c1cnc(N2CC[C@@H](O)C2)c(-c2cncc(F)c2)c1 [Example 45, (R)-5′-Fluoro-2-(3-hydroxypyrrolidin-1-yl)-N-(4-(trifluoromethoxy)phenyl)-[3,3′-bipyridine]-5-carboxamide]
23 | 2 | 0.3 | O=C(Nc1ccc(OC(F)(F)Cl)cc1)c1cnc(N2CC[C@@H](O)C2)c(-c2cnccc2F)c1 [Example 280, (R)—N-(4-(Chlorodifluoromethoxy)phenyl)-4′-fluoro-2-(3-hydroxypyrrolidin-1-yl)-[3,3′-bipyridine]-5-carboxamide]
24 | 1 | 2.4 | O=C(Nc1ccc(OC(F)(F)F)cc1)c1cnc(N2CCNC3(CC3)C2)c(-c2cncnc2)c1 [Example 229]

Row | SMILES | IC50 (ABL1 (64-515) [1]) [nM] | IC50 (ABL1 (64-515) [2]) [nM]
25 | CC(C)(C)Oc1ccc(NC(=O)c2cnc(N3CC[C@@H](O)C3)c(-c3cncnc3)c2)cc1 [Example 219, (R)—N-(4-(tert-Butoxy)phenyl)-6-(3-hydroxypyrrolidin-1-yl)-5-(pyrimidin-5-yl)nicotinamide] | 16 | 16
